Several values for one entry are separate records, joined by “and”; a condition that tells them apart may be missing. Equal entries are not always repeated. Activity calls are given as the source filed them. The calls are words filed in the database; no cut-off is given here.
Key:
Acetylcholinesterase [1] = target: Acetylcholinesterase (Electrophorus electricus, UniProt O42275)
Cholinesterase = Cholinesterase (Equus caballus, UniProt P81908)
Acetylcholinesterase [2] = target: T1, Acetylcholinesterase (Homo sapiens, UniProt P22303)
Histamine H3 receptor = Histamine H3 receptor (Homo sapiens, UniProt Q9Y5N1); experiment: Inhibition of human H3 receptor
[3] = target: Acetylcholinesterase (Electrophorus electricus) (UniProt O42275); experiment: Inhibition of electric eel AChE at 50 uM
[4] = target: Cholinesterase (Equus caballus) (UniProt P81908); experiment: Inhibition of equine serum BChE at 50 uM
Acetylcholinesterase [5] = target: T1, Acetylcholinesterase; experiment: Inhibition of human AChE at 100 uM

T1 sequence (P22303 whole entry): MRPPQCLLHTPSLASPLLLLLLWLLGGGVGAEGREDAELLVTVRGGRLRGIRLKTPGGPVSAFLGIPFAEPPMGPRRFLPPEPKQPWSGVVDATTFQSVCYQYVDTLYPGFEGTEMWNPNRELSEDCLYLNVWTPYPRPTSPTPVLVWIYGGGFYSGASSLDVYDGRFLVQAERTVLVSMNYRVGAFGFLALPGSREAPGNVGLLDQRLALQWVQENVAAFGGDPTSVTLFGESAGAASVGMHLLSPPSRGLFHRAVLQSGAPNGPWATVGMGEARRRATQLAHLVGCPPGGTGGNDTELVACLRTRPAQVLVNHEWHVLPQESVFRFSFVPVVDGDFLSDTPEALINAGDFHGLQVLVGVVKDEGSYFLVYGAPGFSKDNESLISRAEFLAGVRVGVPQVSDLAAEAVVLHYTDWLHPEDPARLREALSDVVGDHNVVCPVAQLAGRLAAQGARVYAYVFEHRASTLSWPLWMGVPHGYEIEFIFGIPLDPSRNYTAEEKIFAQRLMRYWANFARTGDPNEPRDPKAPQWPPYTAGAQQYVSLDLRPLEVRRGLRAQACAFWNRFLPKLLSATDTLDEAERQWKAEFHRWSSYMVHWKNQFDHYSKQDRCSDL
Chain of Acetylcholinesterase (Electrophorus electricus, UniProt O42275) (O42275 whole entry): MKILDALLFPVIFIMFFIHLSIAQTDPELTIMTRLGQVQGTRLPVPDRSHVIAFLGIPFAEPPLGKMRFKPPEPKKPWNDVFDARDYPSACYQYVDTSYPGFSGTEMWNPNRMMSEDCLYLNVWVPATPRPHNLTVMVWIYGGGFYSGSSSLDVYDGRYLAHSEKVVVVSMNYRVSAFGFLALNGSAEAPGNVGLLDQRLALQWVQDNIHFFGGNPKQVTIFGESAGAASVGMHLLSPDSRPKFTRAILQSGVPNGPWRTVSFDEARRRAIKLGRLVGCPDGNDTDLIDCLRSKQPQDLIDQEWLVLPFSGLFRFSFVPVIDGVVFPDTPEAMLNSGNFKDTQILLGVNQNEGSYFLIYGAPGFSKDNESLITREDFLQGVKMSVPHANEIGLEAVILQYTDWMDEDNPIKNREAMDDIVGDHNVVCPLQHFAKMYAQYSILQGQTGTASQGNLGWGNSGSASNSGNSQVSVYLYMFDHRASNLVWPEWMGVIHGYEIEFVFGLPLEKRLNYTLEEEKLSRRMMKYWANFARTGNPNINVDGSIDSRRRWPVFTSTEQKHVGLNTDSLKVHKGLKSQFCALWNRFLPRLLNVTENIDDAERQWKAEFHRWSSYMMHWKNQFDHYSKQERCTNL
Chain of Cholinesterase (P81908 whole entry): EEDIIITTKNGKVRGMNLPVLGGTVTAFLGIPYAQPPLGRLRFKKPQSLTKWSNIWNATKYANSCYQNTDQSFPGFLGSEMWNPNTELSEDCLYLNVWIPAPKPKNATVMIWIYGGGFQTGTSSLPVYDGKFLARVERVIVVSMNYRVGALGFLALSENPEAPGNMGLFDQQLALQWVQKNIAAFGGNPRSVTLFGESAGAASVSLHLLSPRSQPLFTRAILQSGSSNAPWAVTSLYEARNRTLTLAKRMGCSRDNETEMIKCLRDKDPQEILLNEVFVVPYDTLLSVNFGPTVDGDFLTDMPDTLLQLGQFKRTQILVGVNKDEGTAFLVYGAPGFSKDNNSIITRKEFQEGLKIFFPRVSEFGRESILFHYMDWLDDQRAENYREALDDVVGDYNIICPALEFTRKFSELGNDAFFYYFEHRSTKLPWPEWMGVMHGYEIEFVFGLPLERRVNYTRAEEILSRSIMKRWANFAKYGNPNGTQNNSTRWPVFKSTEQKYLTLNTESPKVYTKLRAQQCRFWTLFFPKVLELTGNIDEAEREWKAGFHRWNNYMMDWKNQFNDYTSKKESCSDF
Chain of Histamine H3 receptor (Q9Y5N1 whole entry): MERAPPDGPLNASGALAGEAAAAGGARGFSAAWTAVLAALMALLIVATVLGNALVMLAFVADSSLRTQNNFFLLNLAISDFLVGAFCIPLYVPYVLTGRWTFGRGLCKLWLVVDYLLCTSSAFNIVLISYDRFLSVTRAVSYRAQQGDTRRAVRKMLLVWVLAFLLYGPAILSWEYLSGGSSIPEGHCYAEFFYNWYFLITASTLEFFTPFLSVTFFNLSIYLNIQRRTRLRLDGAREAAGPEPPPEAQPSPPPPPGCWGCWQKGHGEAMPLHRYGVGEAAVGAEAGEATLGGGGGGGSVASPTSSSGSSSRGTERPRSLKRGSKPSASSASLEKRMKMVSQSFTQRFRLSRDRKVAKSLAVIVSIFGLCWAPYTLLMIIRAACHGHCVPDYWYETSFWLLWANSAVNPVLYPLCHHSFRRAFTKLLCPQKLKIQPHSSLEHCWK
Chain of Acetylcholinesterase (Electrophorus electricus) (O42275 24-633 limits assumed): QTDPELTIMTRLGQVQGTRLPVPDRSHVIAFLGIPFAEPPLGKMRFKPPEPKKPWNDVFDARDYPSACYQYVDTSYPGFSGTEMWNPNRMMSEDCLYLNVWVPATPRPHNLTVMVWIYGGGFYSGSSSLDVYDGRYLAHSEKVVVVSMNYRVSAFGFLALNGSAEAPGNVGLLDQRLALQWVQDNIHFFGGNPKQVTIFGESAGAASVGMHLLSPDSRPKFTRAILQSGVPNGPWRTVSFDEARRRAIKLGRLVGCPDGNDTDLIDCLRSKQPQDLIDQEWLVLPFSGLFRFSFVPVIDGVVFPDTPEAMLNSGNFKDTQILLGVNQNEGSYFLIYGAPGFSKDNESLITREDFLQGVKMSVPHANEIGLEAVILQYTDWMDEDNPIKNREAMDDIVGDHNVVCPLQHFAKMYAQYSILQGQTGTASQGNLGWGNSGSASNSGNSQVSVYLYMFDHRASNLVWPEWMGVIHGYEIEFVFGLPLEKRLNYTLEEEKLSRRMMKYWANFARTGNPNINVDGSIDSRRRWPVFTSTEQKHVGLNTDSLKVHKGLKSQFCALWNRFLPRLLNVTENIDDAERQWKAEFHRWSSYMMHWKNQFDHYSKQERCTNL
Chain of Cholinesterase (Equus caballus) (P81908 whole entry): as the sequence (P81908 whole entry) above

Row | Structure (SMILES) | IC50 (Acetylcholinesterase [1]) [nM] | IC50 (Cholinesterase) | IC50 (Acetylcholinesterase [2]) | also measured
1 | O=c1c2cc(OCCCN3CCCCCC3)ccc2nc2n1CCCc1ccccc1-2 | 53.4 | 865 nM |  | 
2 | O=c1c2cc(OCCCN3CCCC3)ccc2nc2n1CCC2 | 50 | 10600 nM |  | 
3 | O=c1c2cc(OCCCN3CCCCC3)ccc2nc2n1CCCCC2 | 43 | 12700 nM | 820 nM | 
4 | CCN(CC)CCCOc1ccc2nc3n(c(=O)c2c1)CCCC3 | 43 | 9140 nM | 1500 nM | 
5 | O=c1c2cc(OCCCN3CCc4ccccc4C3)ccc2nc2n1Cc1ccccc1-2 | 227 | 1730 nM |  | 
6 | CCN(CC)CCCOc1ccc2nc3n(c(=O)c2c1)CCCCC3 | 50.6 | 10800 nM | 12100 nM | 
7 | CCN(CC)CCCOc1ccc2nc3n(c(=O)c2c1)CCCc1ccccc1-3 | 72.1 | 5100 nM | 4200 nM | 
8 | O=c1c2cc(OCCCN3CCCC3)ccc2nc2n1Cc1ccccc1-2 | 16.2 | 2400 nM |  | 
9 | O=c1c2cc(OCCCN3CCCC3)ccc2nc2n1CCCC2 | 210 | 16100 nM |  | 
10 | O=c1c2cc(OCCCn3ccnc3)ccc2nc2n1Cc1ccccc1-2 | 454 | 9110 nM |  | 
11 | O=c1c2cc(OCCCN3CCCC3)ccc2nc2n1CCCc1ccccc1-2 | 529 | 3610 nM |  | 
12 | O=c1c2cc(OCCCN3CCCCC3)ccc2nc2n1CCCc1ccccc1-2 | 57.1 | 2670 nM | 535 nM | 
13 | c1cc2c(cc1OCCCN1CCCCC1)CN1CCCC1=N2 | 66.5 |  | 33.9 nM | Ki (Histamine H3 receptor): 76.2 nM
14 | O=c1c2cc(OCCCN3CCCCC3)ccc2nc2n1CCCC2 | 33.3 | 6550 nM | 225 nM | 
15 | O=c1c2cc(OCCCN3CCCCC3)ccc2nc2n1CCc1ccccc1-2 | 5.5 | 955 nM | 217 nM and 216 nM | 
16 | O=c1c2cc(OCCCN3CCc4ccccc4C3)ccc2nc2n1CCCCC2 | 653 | 3030 nM |  | 
17 | O=c1c2cc(OCCCn3ccnc3)ccc2nc2n1CCCCC2 | 3950 | 59800 nM |  | 
18 | O=c1c2cc(OCCCN3CCCCC3)ccc2nc2n1CCC2 | 69.2 | 122000 nM | 1100 nM | 
19 | O=c1c2cc(OCCCN3CCCC3)ccc2nc2n1CCCCC2 | 295 | 12200 nM |  | 
20 | O=c1c2cc(OCCCn3ccnc3)ccc2nc2n1CCCc1ccccc1-2 | 10300 | 52000 nM | 56500 nM | 

Row | Structure (SMILES) | IC50 (Acetylcholinesterase [1]) [nM] | IC50 (Cholinesterase) | IC50 (Acetylcholinesterase [2]) | also measured
21 | CCN(CC)CCCOc1ccc2nc3n(c(=O)c2c1)CCC3 | 101 | 829 nM | 1200 nM | 
22 | O=c1c2cc(OCCCN3CCCC3)ccc2nc2n1CCc1ccccc1-2 | 91.1 |  |  | 
23 | O=c1c2cc(OCCCC3CCCCC3)ccc2nc2n1Cc1ccccc1-2 |  |  |  | inhibition [3]: 34%; inhibition [4]: inactive; inhibition (Acetylcholinesterase [5]): 35%
24 | O=c1c2cc(OCCCCCCCCCN3CCCCC3)ccc2nc2n1CCC2 | 390 | 8600 nM |  | 
25 | O=c1c2cc(OCCCN3CCCCCC3)ccc2nc2n1CCC2 | 50.2 | 5220 nM |  | 
26 | CCN(CC)CCCOc1ccc2nc3n(c(=O)c2c1)Cc1ccccc1-3 | 11 | 1880 nM | 200 nM | 
27 | O=c1c2cc(OCCCN3CCCCCC3)ccc2nc2n1Cc1ccccc1-2 | 5 | 1870 nM |  | 
28 | O=c1c2cc(OCCCN3CCc4ccccc4C3)ccc2nc2n1CCC2 | 868 | 776 nM |  | 
29 | O=c1c2cc(OCCCN3CCCCC3)ccc2nc2n1Cc1ccccc1-2 | 6.9 |  | 143 nM and 142 nM | 
30 | O=c1c2cc(OCCCN3CCCCCC3)ccc2nc2n1CCc1ccccc1-2 | 13 | 584 nM |  | 
31 | O=c1c2cc(OCCCn3ccnc3)ccc2nc2n1CCc1ccccc1-2 | 2440 | 8680 nM |  | 
32 | O=c1c2cc(OCCCN3CCCCCC3)ccc2nc2n1CCCC2 | 58.5 | 1770 nM and 2670 nM |  | 
33 | CCN(CC)CCCOc1ccc2nc3n(c(=O)c2c1)CCc1ccccc1-3 | 47.5 | 2160 nM | 669 nM | 
34 | O=c1c2cc(OCCCn3ccnc3)ccc2nc2n1CCC2 | 1900 | 14600 nM |  | 
35 | O=c1c2cc(OCCCn3ccnc3)ccc2nc2n1CCCC2 | 4240 | 50000 nM and 59000 nM |  | 
36 | O=c1c2cc(OCCCN3CCc4ccccc4C3)ccc2nc2n1CCc1ccccc1-2 | 625 | 1830 nM |  | 
37 | O=c1c2cc(OCCCN3CCCCCC3)ccc2nc2n1CCCCC2 | 39.2 | 1800 nM |  | 
38 | O=c1c2cc(OCCCN3CCc4ccccc4C3)ccc2nc2n1CCCC2 | 723 | 5490 nM |  | 
39 | O=c1c2cc(OCCCN3CCc4ccccc4C3)ccc2nc2n1CCCc1ccccc1-2 | 1190 | 1840 nM |  | 
